Point of comparison: `CCCCCCCCCCCCC(C(=O)NO)S(=O)(=O)c1ccc(OC)cc1` (centres undefined), melting point 114 °C. Against it:
- Nc1nc2cc(Cl)c(Cl)cc2nc1-c1ccco1 — higher, 222 to 223 °C
- CNC(=O)C(Cc1ccc(F)cc1)NC(=O)Nc1n[nH]c(=S)s1 (centres undefined) — higher, 225 to 227 °C
- COc1ccc(-c2cc(-c3nc(C)cs3)c(=O)n(C)c2-c2cnccn2)cc1 — higher, 168 to 170 °C
- Cn1c([N+](=O)[O-])cnc1C1=NO[C@@H]2CCCCCC[C@@H]12 (relative stereo) — lower, 106 to 109 °C
- CC(C)C[C@H](N)C(=O)N[C@@H](CC1CCCCC1)[C@@H](O)c1ccccn1 — lower, 98 to 100 °C
- CCN(CC)c1ccc(C2(N(c3ccccc3)c3ccc(N(C)C)cc3)OC(=O)c3ccccc32)c(C)c1 (centres undefined) — higher, 154 to 156 °C
- N#Cc1ccc(CCN2CCC(NC(=O)C34CC5CC(CC(C5)C3)C4)C2)cc1 (centres undefined) — lower, 104 to 105 °C
- O=P(OC1=Nc2ccc(Cl)cc2C(c2ccccc2Cl)=NC1)(N1CCOCC1)N1CCOCC1 — higher, 185 to 187 °C
- COc1cc(C=CC(CCc2ccco2)=NO)ccc1O — not separable, 110 to 120 °C
- CC(C)c1ccc2c(c1)c(SCC1CC1)c(CC(C)(C)C(N)=O)n2Cc1ccc(Cl)cc1 — higher, 137 to 138 °C
- CCOc1cn(C)cc(-c2cccc(C(F)(F)F)c2)c1=O — higher, 131 to 133 °C
- O=C(CCNc1c(C(=O)O)[nH]c2cc(Cl)cc(Cl)c12)c1cccc(F)c1 — higher, 270 to 280 °C
- CC1(C)C(=O)N(Cc2ccccc2Cl)OC1O (centres undefined) — higher, 122 to 126 °C
- CN(C(Cc1ccc(O)cc1)CN1CCN(c2ccccc2)CC1)S(=O)(=O)c1cccc2cnccc12 (centres undefined) — higher, 201 °C
- C=CC(=O)NCCOc1ccc2c(c1)nc(N)c1nc(CCC)sc12 — higher, 200 to 202 °C
- CN[C@@H]1COc2cc(Cl)cc(-c3ccc(Cl)cc3Cl)c2O1 — higher, 140 °C
- COC(=O)C(=Cc1ccc(OC)c(OCCc2ccccc2)c1)C(=O)OC — lower, 105 to 106 °C
- CCC(=O)c1cc2ccccc2cc1C(=O)O — higher, 147 °C
- Cc1cc(C)c(C(=O)P(=O)(Oc2ccccc2C(C)(C)C)c2ccccc2)c(C)c1 (centres undefined) — lower, 76 to 79 °C
- O=[N+]([O-])c1oc2cc3c(cc2c1-c1ccccc1)CCC3 — higher, 161 to 164 °C
- O=C(O)Cc1c(C(=O)O)c2cc(Oc3cccc(OC(F)(F)F)c3)ccc2n1-c1ccc(OC(F)(F)F)cc1 — higher, 188 to 193 °C
- Cc1cc(N)cc(C)c1C(=O)Cc1ccccc1C(F)(F)F — higher, 168 °C
- COc1cc(/C=C/C=C/C=O)ccc1OCc1nc(-c2ccccc2)oc1C — higher, 133 to 134 °C
- CSC(=Nc1ccccc1)Nc1ccccc1 — lower, 105 to 106 °C
- CCCCCCCCOC(=O)CCc1cc(C(C)(C)C)c2oc(-c3ccc(-c4nc5cc(CCC(=O)OCCCCCCCC)cc(C(C)(C)C)c5o4)s3)nc2c1 — lower, 68 to 70 °C
- Cc1cc(C)n2nc(S(=O)(=O)Nc3c(F)cccc3F)c(Cl)c2n1 — higher, 194 to 196 °C
- CCOC1CN(Cc2cc(OC)c(OC)c(OC)c2)Cc2cc(OC)c(O)cc21 (centres undefined) — lower, 94 to 96 °C
- Cc1c(Cl)cccc1S(=O)(=O)Nc1ccc2nc(C)n(CCO)c2c1 — higher, 213 to 214 °C
- Cc1ccc(C(=O)S[C@@H](C)C(=O)N2CSC[C@H]2C(=O)O)cc1 — higher, 166 °C
- CCC(=O)N(C)c1ccc(C(=O)C=CN(C)C)cc1 — lower, 76 to 78 °C
- CN1C(=O)N(CBr)C(=O)C1(C)C — lower, 86 to 88 °C
- COC(=O)CCc1ccc(O)c([N+](=O)[O-])c1 — lower, 60 to 62 °C
- COc1cc2c(cc1OC)C(=O)C(=O)N(CCCN(C)CCCSc1ccccc1)CC2 — lower, 77 to 79 °C
- CS(=O)(=O)c1ccc(N2CCc3ccccc32)c([N+](=O)[O-])c1 — higher, 152 to 154 °C
- CCCCCCCCC(O)CNCCCCCCNCC(O)CCCCCCCC (centres undefined) — higher, 118 to 127 °C
- CC(=O)Nc1ccc(SC2OC(CO)C(O)C(O)C2O)cc1 (centres undefined) — higher, 160 to 163 °C
- Cc1cc2c(Cl)cc(F)c(-c3ccc(C(F)(F)F)n(C)c3=O)c2o1 — higher, 138 to 140 °C
- CN1NC(=O)CC1c1ccccc1 (centres undefined) — higher, 160 to 161 °C
- O=c1nc(-c2ccnc(C3CNCCO3)c2)sc2ccccc12 (centres undefined) — higher, 157 to 158 °C
- O=C(O)c1ccc2c(c1)C(=O)C(=Cc1cccs1)O2 — higher, 310 to 312 °C
- O=C(O)C1Cc2c(c(Cl)cc3c(=O)c4ccccc4oc23)O1 (centres undefined) — higher, 292 to 295 °C
- O=C(Nc1ccc(N2CCNCC2)c(C(F)(F)F)c1)c1ccc(F)c(OCc2cnc3ccccc3c2)c1 — lower, 76 to 78 °C
- CCCc1c(OCCCCCC(=O)c2ccc3cc(OC)c(OC)cc3c2)ccc(C(=O)OC)c1O — lower, 111 to 112 °C
- CCc1nc2c(cnn2CC)c(NC2CCOCC2)c1CNC(=O)c1cccc(C(=O)NCc2ccc(OC)c(-c3cccc(CN4CC(C)NC(C)C4)c3)c2)c1 (centres undefined) — higher, 127 to 129 °C
- CCCCCC(Cc1cnc(CCCC)n1Cc1ccccc1Cl)C(=O)O (centres undefined) — higher, 124 to 127 °C
- CC(C)(C)c1ccc(/C=C/C(=O)Nc2ccccc2)cc1 — higher, 141 °C
- CON=C(C(=O)O)c1nc(NC=O)ccc1Cl — higher, 151 to 154 °C
- COc1cc(C=C2SC(=O)NC2=O)ccc1OCCN1c2ccccc2Sc2ccccc21 — higher, 210 to 212 °C
- CNc1cc(-c2ccc(Cl)cc2)nn1C — lower, 112 °C
- Nc1ccc(SC2=CCCCC2)cc1[N+](=O)[O-] — lower, 93 to 95 °C
- O=C(OCC(Cl)(Cl)Cl)c1ccc2c(c1)C(C(Cl)(Cl)Cl)OC(C(Cl)(Cl)Cl)O2 (centres undefined) — higher, 129 to 130 °C
- CCCc1nc(-c2cccnc2)cnc1NN — higher, 162 to 163 °C
- O=C1c2cccc(O)c2CN1C1CCN(CCC(c2ccccc2)c2ccccc2)CC1 — not separable, 114 to 118 °C
- CCCCCCCCCCCCCCCCCCOc1cc(N(CC(=O)OC)CC(=O)OC)cc([N+](=O)[O-])c1 — lower, 68 to 74 °C
- O=C(O)c1ccc(-c2nn(Cc3ccccc3)c3ccccc23)o1 — higher, 200 to 202 °C
- CCOC(=O)c1cc2cc(-c3ccccc3OC)ccc2nn1 — higher, 143 to 145 °C
- COC(=O)CCC(=O)c1ccc(-c2ccc(Cl)s2)cc1 — higher, 117 to 118 °C
- CCOCn1c(-c2ccc(Cl)cc2)c(C#N)c(Cl)c1C(F)(F)F — lower, 104 °C
- COC(=O)NCCc1ccc(OCC(O)CNC(C)C)nc1 (centres undefined) — lower, 97 to 99 °C
- CC(=O)Nc1c(C(=O)c2ccccc2C)[nH]c2cc(Cl)ccc12 — higher, 140 to 142 °C
- O=C(c1ccc(F)cc1)C1CCN(CCN(C(=O)c2ccc([N+](=O)[O-])cc2)c2cccc(C(F)(F)F)c2)CC1 — higher, 123 to 137 °C
- CCCOC(=O)c1cncn1C(C)c1ccccc1 (centres undefined) — higher, 156 to 157 °C
- CCOC(=O)c1cn(Cc2ccc(F)cc2)c2ccc(C(C)=O)cc2c1=O — higher, 207 to 209 °C
- Cc1c(Cl)c(Oc2ncc(C(F)(F)F)cc2Cl)nn1C(=O)NCCCl — not separable, 112 to 114 °C
- CN(CC(=O)OCCCCNc1cccc2c1C(=O)c1ccccc1C2=O)C(=O)OC(C)(C)C — lower, 90 °C
- c1ccc(CNCCOc2ccc3ccccc3c2)cc1 — lower, 94 °C
- CC1CCN(CCCC(=O)c2ccc3c(c2)Cc2cc(C(=O)CCCN4CCC(C)CC4)ccc2-3)CC1 — higher, 180 to 181 °C
- CC(C)(C(N)=O)c1ccc(C(=O)O)cc1 — higher, 218 to 219 °C
- CCOC(=O)c1cc2cccc(NS(=O)(=O)c3ccccc3C(F)(F)F)c2[nH]1 — higher, 138 to 139 °C
- CC(C(=S)c1ccc(NC=O)nc1)S(C)=O (centres undefined) — higher, 125 to 127 °C
- Cc1cc(C)c(N2CCCc3c2nn(C)c3C(=O)O)c(Cl)c1 — higher, 248 °C
- O=C(COc1cccc(-n2nc(-c3ccc(F)cc3)c3cccnc32)c1)N1CCOCC1 — higher, 141 to 143 °C
- CCCCCCCCCCCCCC(=O)c1cc(O)c(C)cc1O — lower, 83 °C
- COC(=O)/C=C/c1cc([N+](=O)[O-])cn1C — higher, 146 to 147 °C
- CC(C)(C)OC(=O)N1CCOS1(=O)=O — higher, 122 °C
- C[C@@H]1c2ccccc2-c2ccc(F)cc2N1C(=O)c1ccc(O)cc1O — higher, 182 to 184 °C
- CC1CN(c2ccc([N+](=O)[O-])cc2)CC(C)N1 (centres undefined) — higher, 124 to 125 °C
- COc1nc2c(cc1C#N)CCCCC2 — lower, 83.5 to 84 °C
- O=Cc1cn(Cc2ccc(OCc3csc(-c4ccccc4)n3)cc2)nc1-c1cccs1 — higher, 115 to 116 °C
- CC(CCC(=O)N(Cc1ccccc1)Cc1ccccc1)(c1ccc(O)cc1)c1ccc(O)cc1 — higher, 203 to 207 °C
- O=Cc1csc(N(c2ccccc2)c2ccccc2)n1 — higher, 160 to 161 °C
- Cc1cc(C)c2c(c1C)OCC2c1ccc(C=O)cc1 (centres undefined) — lower, 87 to 88 °C
- CNS(=O)(=O)c1cc(-n2nc3ccc(Cl)cn3c2=O)c(F)cc1C#N — higher, 154 to 157 °C
- CN(C)c1cc(CC#N)cc(Cc2nc3c(F)c(F)cc(F)c3s2)c1 — lower, 99 to 100 °C
- Nc1ccc(-c2cccc([N+](=O)[O-])c2)cc1O — higher, 175 to 176 °C
- O=C(Nc1n[nH]c(=S)s1)NC(Cc1ccccc1)C(=O)NCc1ccncc1 (centres undefined) — higher, 208 to 211 °C
- COc1cc(C2=NC(C)(C)CO2)cc(OC)c1Br — higher, 172 to 174 °C
- Oc1ccc(C2(c3ccc(O)cc3)CCC(c3ccccc3)CC2)cc1 — higher, 262 to 263 °C
- O=C(O)c1cccc(-c2cc(-c3ccccc3)on2)c1 — higher, 250 to 251 °C
- COc1cccc2c(=O)cc(-c3ccc(O)cc3)oc12 — higher, 281 to 283 °C
- N#Cc1cccc(/C=C/C2=CCN(Cc3c[nH]c4ncccc34)CC2)c1 — higher, 213 to 215 °C
- COC(=O)COc1ccc(C(=O)CN2CCN(c3ccnc(C)c3)CC2)cc1 — higher, 155 to 157 °C
- CCCc1ccc(C2c3c(C)cc(C)c(C)c3OC2(C)C)cc1 (centres undefined) — lower, 69 to 70 °C
- COC(=O)C1=C(O)c2sc(C(F)(F)F)cc2S(=O)(=O)N1 — higher, 168 to 170 °C
- CCOC(=O)C1=C(C)NC(C)=C(C(=O)OCC)C1c1ccccc1C=Cc1ccc(Cl)cc1 — higher, 178 to 181 °C
- CC1Oc2ccc(Cl)cc2N(CC(O)CO)C1=O (centres undefined) — lower, 88 °C
- Cc1cccc(C(=O)NC(C)C)c1NC(=O)c1cc(C(F)(F)F)nn1-c1ncccc1Cl — higher, 194 to 196 °C
- O=C(NCc1ccccn1)Nc1cc(NC(=O)c2ccccc2)ccn1 — higher, 222 to 223 °C

Reference: a melting point compilation (Tetko et al.; mined from patent text by program, amines drawn as free bases though some values may be those of a salt)
